One assay relates to S.aureus (Smith). The assay is described as follows: Minimal Inhibitory Concentration (MIC) determination, 96 well plates. The class given is cell-based, Staphylococcus aureus. The following applies: Staphylococcus aureus. In short, it runs like this:
(§1)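 Broth growth in Heart-Brain Infusion medium, seeded at about 1x10^5 CFU/ml, 16 to 18 hours at 37°C. Growth read at OD 600 nm as percent of untreated control; five concentrations per drug, five data points each, MIC reported in µg/ml.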

The test system of another assay is E. fecium. Described as above. The following applies: Enterococcus; HBI medium, 16 to 18 hours at 37°C; read-out: MIC (µg/ml) E. fecium. Type of assay: cell-based, Enterococcus fecium. In short, it runs like this: as §1
The test system of a further assay is E. coli. Described as above. Type of assay: cell-based, Escherichia coli. The conditions noted are these: Escherichia coli; HBI medium, 16 to 18 hours at 37°C; read-out: MIC (µg/ml) E. coli. In short, it runs like this:
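Cultures seeded at approximately 1x10^5 CFU/ml in Heart-Brain Infusion medium were exposed to five compound concentrations, five data points each, for 16 to 18 hours at 37°C. Growth at OD 600 nm was expressed as percent of control, and MIC values are given in µg/ml.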

The next assay relates to MRSA 1123. Kind of assay: MIC against clinically relevant strains. The class given is cell-based. The conditions noted are these: Staphylococcus aureus, methicillin resistant S. aureus strain. As for the experimental part: (§2) The following methods were used to characterize representative compounds. Minimal Inhibitory Concentration (MIC) determinations. MIC values were determined in 96 well plates, with bacterial growth monitored at OD 600 nm in 200µl following an initial bacterial seeding at approximately 1x10^5 colony forming units (CFU)/ml. Each drug is evaluated at five concentrations, with five data points at each dilution. MIC values (µg/ml) were determined against actively growing cultures in Heart-Brain Infusion (HBI) medium. Cell growth in cultures supplemented with a test compound was calculated as a percent of control at OD 600 nm after 16 to 18 hours at 37°C. This plate format conserves test compound and provides precise, quantitative data with low standard deviation determinations. Polymerase IIIC (Pol IIIC) assay. DNA polymerase activity (or inhibition thereof) was measured in a 96-well plate format. B. subtilis Pol IIIC was isolated as described by Hammond and Brown (Protein Expr. Purif., 3: 65-70 (1992)). Each 25 µl assay contained 30 mM Tris, pH 7.5, 10 mM magnesium acetate, 4 mM dithiothreitol, 20% glycerol, with 25 µM dATP, dCTP, dGTP and 10 µM dTTP (^3H-labelled at 1.44 Ci/mmole) and 0.4 mg/ml activated calf thymus DNA as substrates, as described previously (see Barnes et al, op. cit). Assays were initiated by the addition of 0.025 to 0.06 units of enzyme 1 unit is the amount required to incorporate 250 pmoles of [^3H] dTMP in a standard assay), incubated for 10 minutes at 30°C and terminated by the addition of 200 µl of cold 10% trichloroacetic acid (TCA),10 mM sodium pyrophosphate. Precipitated labeled DNA was collected on glass fiber filter plates, washed, dried, and counted in a liquid scintillation counter. Determination of Ki values. DNA polymerase activity was measured in a 96-well plate format in the absence of dGTP or dATP, depending on the structure of the test compound. Each 25 µl assay contained 30 mM Tris, pH 7.5, 10 mM magnesium acetate, 4 mM dithiothreitol, 20% glycerol, with 25 µM dATP, dCTP, and 10 µM dTTP (^3H-labelled at 1.44 Ci/mmole) and 0.4 mg/ml activated calf thymus DNA as substrates, as described previously. To each well were added 2 µl of compound solution to give final concentrations ranging from 20 - 0.027 µg/ml in the assay. Assays were initiated by the addition of 0.025 to 0.06 units of enzyme (1 unit is the amount required to incorporate 250 pmoles of [^3H] dTMP in a standard assay), incubated for 10 minutes at 30 °C and terminated by the addition of 200 µl of cold 10% trichloroacetic acid, 10 mM sodium pyrophosphate. Precipitated labeled DNA was collected on glass fiber filter plates, washed, dried, and counted in a liquid scintillation counter. Ki is the concentration of test compound that reduces the control polymerase IIIC activity by 50 percent.
(§3) Compounds were also tested for antibacterial activity against certain clinically relevant strains, e.g., methicillin sensitive (MSSA) and methicillin resistant (MRSA) strains of Staphylococcus aureus.

In the next assay the test system is MRSA1094. Kind of assay: MIC against clinically relevant strains. The class given is cell-based. The following applies: Staphylococcus aureus; methicillin resistant S. aureus strain. How it is done: as §2, §3
The next assay deals with MRSA1132. The assay is described as follows: MIC against clinically relevant strains. The class given is cell-based. The following applies: Staphylococcus aureus; methicillin resistant S. aureus strain. How it is done: as §2, §3
[1] abbreviates: HBI medium, 16 to 18 hours at 37°C, read-out: MIC (µg/ml) S.aureus (Smith).
[2] abbreviates: table of MSSA/MRSA strains, read-out: MIC (µg/ml) S. aureus (Smith).

Structures are written as SMILES. Values after ≈ are worked out from the molar mass of the structure shown. Where two headings read alike, the source gives them in different places. A value given as a limit tells only on which side of the number the result lay.

Turning to `CCc1cc(Nc2cc(=O)n(CCCCN3CCN(c4cc5c(cc4F)c(=O)c(C(=O)O)cn5C4CC4)CC3)c(=O)[nH]2)ccc1C` [Compound 2, 3-{4-[1-(1-cyclopropyl-3-carboxy-4-oxo-6-fluoro-7-quinolyl)-4-piperazinyl]butyl}-6-(3-ethyl-4-methylanilino)uracil], the MIC is 0.313 µg/mL (≈ 0.496 µM) in the assay on S.aureus (Smith) (setting [1]); 0.313 µg/mL (≈ 0.496 µM) in the assay with S.aureus (Smith) (setting [2]); 1.25 µg/mL (≈ 1.98 µM) in the assay with E. fecium; 2.5 µg/mL (≈ 3.96 µM) in the assay on E. coli; 0.625 µg/mL (≈ 0.991 µM) against MRSA 1123; 0.625 µg/mL (≈ 0.991 µM) in the assay on MRSA1094. This molecule showed an MIC in the assay on MRSA1132 of 0.625 µg/mL (≈ 0.991 µM).
In the case of `CCc1cc(Nc2cc(=O)n(CCCCN3CCN(c4cc5c(cc4F)c(=O)c(C(=O)O)cn5C4CC4)CC3)c(=O)[nH]2)ccc1C.CS(=O)(=O)O` [Compound 10, 3-{4-[1-(1-cyclopropyl-3-carboxy-4-oxo-6-fluoro-7-quinolyl)-4-piperazinyl]butyl}-6-(3-ethyl-4-methylanilino)uracil methanesulfonate], the MIC in the assay on S.aureus (Smith) (setting [1]) was 0.625 µg/mL; in the assay on S.aureus (Smith) (setting [2]) it was 0.625 µg/mL; in the assay with E. fecium, 2.5 µg/mL; in the assay on E. coli, 5 µg/mL; in the assay with MRSA 1123, 1.25 µg/mL; against MRSA1094, 1.25 µg/mL. This molecule registered an MIC against MRSA1132 of 0.625 µg/mL.
Turning to `CCc1cc(Nc2cc(=O)n(CCCCN3CCN(c4c(F)cc5c(=O)c(C(=O)O)cn(C6CC6)c5c4F)CC3C)c(=O)[nH]2)ccc1C` (stereo not drawn) [Compound 70, 3-{4-[1-(1-cyclopropyl-3-carboxy-4-oxo-6,8-difluoro-7-quinolyl)-3-methyl-4-piperazinyl]butyl}-6-(3-ethyl-4-methylanilino)uracil], the MIC in the assay with S.aureus (Smith) (setting [1]) was 0.156 µg/mL (≈ 0.235 µM); in the assay with S.aureus (Smith) (setting [2]), 0.21 µg/mL (≈ 0.317 µM); in the assay on E. fecium, 1.25 µg/mL (≈ 1.89 µM); with E. coli, over 80 µg/mL; in the assay with MRSA 1123 it was 0.94 µg/mL (≈ 1.42 µM); against MRSA1094, 0.94 µg/mL (≈ 1.42 µM). For the same molecule, the MIC against MRSA1132 was 0.31 µg/mL (≈ 0.468 µM).

Source of the values: EP1401829B1, “NOVEL HETEROCYCLIC ANTIBACTERIAL COMPOUNDS” (Microbiotix, Inc., priority 2001, dated 2002).
